This note sets out measurements from patent US20260028451A1, “Amido-Amine Hardener” (priority 2022, published 2026).

One data set relates to MELN cells. It is filed as cell-based, human. The protocol: The use of bisphenol A in epoxy systems is often avoided for this reason. Various phenolic compounds, such as phenolic Mannich bases may also pose a risk of acting as oestrogen agonists, this is thought to be due to structural similarity between the phenolic group and the phenolic group present in oestrogen itself. […]. The tests were performed using MELN cells [hER-stably transfected model of the human breast cancer MCF-7 cells]. The use of MELN cells for screening cytotoxicity and oestrogenic activity is a standard test known in the art, for example, as described in Berckmans P, Leppens H, Vangenechten C, Witters H., “Screening of endocrine disrupting chemicals with MELN cells, an ER-transactivation assay combined with cytotoxicity assessment”, Toxicol In Vitro. 2007, 21(7), 1262-7.

A short description of data set [1]: Viscosity at 25° C., ASTM D2556-14(2018). The data set is classed as physicochemical. The following applies: undiluted curative composition / product as prepared. As to the method:
This material was then diluted with benzyl alcohol in order to reduce the viscosity. The relationship between the viscosity (as measured by ASTM D2556-14(2018)) and the vol % dilution with benzyl alcohol is shown in FIG. 1. […] The properties of a 63:37 vol/vol mixture of salicylamide Mannich base C:benzyl alcohol are shown below in Table 7.

In a further data set the target is T1, oestrogen receptor (Homo sapiens, UniProt P03372).
T1 construct: MELN cells [hER-stably transfected model of the human breast cancer MCF-7 cells]; endogenous in cells; host or cells: MELN cells (MCF-7 human breast cancer cells)
T1 sequence (P03372 1-595): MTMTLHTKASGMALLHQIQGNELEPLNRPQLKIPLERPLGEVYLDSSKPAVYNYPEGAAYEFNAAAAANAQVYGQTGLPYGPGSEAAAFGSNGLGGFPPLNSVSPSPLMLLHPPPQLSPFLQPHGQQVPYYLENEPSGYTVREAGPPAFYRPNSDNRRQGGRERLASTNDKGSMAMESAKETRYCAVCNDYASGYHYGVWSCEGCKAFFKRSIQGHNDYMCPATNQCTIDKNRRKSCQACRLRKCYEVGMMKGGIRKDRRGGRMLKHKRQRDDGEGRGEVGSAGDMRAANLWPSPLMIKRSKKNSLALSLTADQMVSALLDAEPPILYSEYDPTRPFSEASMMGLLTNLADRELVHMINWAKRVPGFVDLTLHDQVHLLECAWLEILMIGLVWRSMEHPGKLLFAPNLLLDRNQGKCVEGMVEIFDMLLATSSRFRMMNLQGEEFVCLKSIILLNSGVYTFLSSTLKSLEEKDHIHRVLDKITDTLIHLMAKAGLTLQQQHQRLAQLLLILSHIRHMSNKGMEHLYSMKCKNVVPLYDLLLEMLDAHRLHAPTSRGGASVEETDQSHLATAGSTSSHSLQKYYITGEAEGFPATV
As to the kind of experiment: Oestrogenic activity testing using MELN cells (ER-transactivation assay). The data set is classed as cell-based. As to conditions: hER-stably transfected MCF-7. As to the method:
Various phenolic compounds, such as phenolic Mannich bases may also pose a risk of acting as oestrogen agonists, this is thought to be due to structural similarity between the phenolic group and the phenolic group present in oestrogen itself. […] The tests were performed using MELN cells [hER-stably transfected model of the human breast cancer MCF-7 cells].

As for `C[C@]12CC[C@@H]3c4ccc(O)cc4CC[C@H]3[C@@H]1CC[C@@H]2O` [17β- oestradiol, 17β-oestradiol], the Cytotoxicity result with MELN cells is given as “No”.
As for `NCCNCCNCCNCc1cc(CNCCNCCNCCN)c(O)c(C(=O)NCCNCCNCCN)c1` [Salicylamide Mannich Base A], the “Viscosity at 25° C.” value in data set [1] is on record as 1130 m · Pas. The Cytotoxicity entry with MELN cells is “No”. For the same compound, the Agonist response entry at oestrogen receptor was “Negative”.
As to `CC(C)(c1ccc(O)cc1)c1ccc(O)cc1` [Bisphenol A, bisphenol A], the Cytotoxicity result with MELN cells is on record as “No”. Moreover, the Agonist response result on oestrogen receptor is recorded as “Positive”.
